Data: patent publication US4680286A, “Use of selenium-containing compounds for negating the toxic effects of gold compounds used in the treatment of rheumatoid arthritis, and a novel selenium-containing gold compound and use thereof as an anti-rheumatoid arthritis medicine” (priority 1985, dated 1987)

What was measured:
[1] = system: cadmium-induced testicular demage; details: Kar, Das and Mukerji 1960; cited from earlier work
[2] = system: toxicity of mercury, silver and thallium; details: observed by other researchers; cited from earlier work
[3] = Accumulation of selenium in tissue of mice; type: in vivo; details: sodium selenite in drinking water over an extended period, level at which gold was given
Experimental: (§1) A number of experiments in which sodium selenite was given to mice both prior to and after treatment with a gold compound were conducted. In the first series of experiments in which the selenium compound was administered prior to the gold injection, mice were given sodium selenite in their drinking water over an extended period of time. Periodically, the mice were sacrificed and the kidney and liver were analyzed to monitor the accumulation of selenium. When observed selenium levels in the liver were on the order of 5 ppm, the remaining animals were given the gold compound at levels slightly exceeding the reported LD50 value.
In these experiments, large groups of mice were fed other type selenium compounds, which were sodium selenate, selenium yeast and selenocystine. Periodically, one would be sacrificed and the selenium concentration of the kidney and liver would be determined. When above 5 to about 7 ppm selenium concentrations were obtained, the remaining mice were given injections of Na3 Au(S2 O3)2.2H2 O at the reported LD50 value. A control group that received no dietary selenium was maintained. This control group was given the gold salt at the same time as the selenium accumulated mice. The toxic effects of the gold was then compared in the two groups of mice.

[4] = system: toxic effects of Na3 Au(S2 O3)2.2H2 O; test: Gold toxicity in mice given sodium selenite prior to (drinking water) or after (injection) the gold compound; type: in vivo; details: gold at or slightly exceeding reported LD50, vs gold-only control
Experimental: as §1
In the second series of experiments, in which sodium selenite were injected after the gold injection, the mice were given dosages of gold compounds at the reported LD50 value and were then injected with sodium selenite. In both series of experiments, a control group which received the gold compound but no selenium compound was maintained. […] In all cases, the gold was administered as Na3 Au(S2 O3)2.2H2 O.

Row | SMILES | protection against cadmium-induced testicular damage [1] | protection against the toxicity of mercury, silver and thallium [2] | observed selenium levels in the liver [3] | toxic effects compared with mice which received only the gold treatment [4]
1 | [Se] [selenium] | prevents cadmium-induced testicular demage | Protection effects | – | –
2 | O=[Se](O)O [sodium selenite] | – | – | ~5 ppm | markedly reduced toxic effects
